# Source: PMC6609550, “Blockade of the forward Na^+/Ca^2+ exchanger suppresses the growth of glioblastoma cells through Ca^2+‐mediated cell death” (British Journal of Pharmacology, 2019)
# Columns and labels:
# Assay type in all cases: cell-based, Human
# U87 cells [1] = test: Cell cycle assay (PI staining, flow cytometry) of U87 cells; conditions: bepridil 25 μM 6–24 hr, CB‐DMB 3.5 μM 6–24 hr, KB‐R7943 25 μM 18 hr, BAPTA‐AM 10 μM 18 hr, CC‐930 10 μM, PD169316 10 μM 18 hr
# Protocol: (§1) U87 cells were seeded in six‐well plates (Corning, Corning, NY, USA) with 1 × 10^6 cells per well and treated with NCX blockers, BAPTA‐AM, or MAPK inhibitors. Drug treatment was performed by the person who is blinded to the experimental groups. After treatment, cells were harvested in 15‐ml tubes and washed with cold sterile PBS. After being centrifuged, cells were fixed with 70% ethanol […] at 4°C for at least 1 hr. For propidium iodide (PI) staining, cells were washed one time with PBS and then were treated with ribonuclease A (RNase; 100 μg·ml^−1) for 30 min. PI (10 μg·ml^−1) was added, and stained cells were kept in the dark at 4°C until analysis. The number of cells analysed for each sample was 10,000 events. FACS analysis was performed using the Coulter CytoFlexS flow cytometer (Beckman Coulter, CA, USA), and the percentage of cells in the G0/G1, S, and G2/M phases was determined using cell cycle analysis software, ModFit LT 5.0 (Verity Software House, Topsham, ME, USA). For the apoptosis assay, cells were harvested and washed twice with cold PBS and resuspended at a density of 1 × 10^6 cells·ml^−1 in 100 μl of binding buffer containing 5 μl of Annexin V–FITC and 5 μl of PI working solution (100 μg·ml^−1). After incubation at room temperature for 15 min in the dark, 400 μl of binding buffer was added to each sample. Apoptosis was analysed by Coulter CytoFlexS flow cytometer (Beckman Coulter) for at least 10,000 events, and data were analysed with the software, CyExpert 2.0 (Beckman Coulter).
# [Na^+]i in U87 cells = Na+ imaging (ANG-2 AM) of U87 cells; conditions: bepridil 50 μM, KB‐R7943 50 μM, CB‐DMB 4 μM
# Protocol: (§2) Cells were cultured in 96‐well plates at 8 × 10^3 per well and loaded with the cell membrane‐permeable Ca^2+ dye Fluo‐4 AM (5 μM) in 100‐μl HEPES‐buffered solution for 50 min. The solution contained (mM): 135 NaCl, 3 KCl, 2 CaCl2, 1 MgCl2, 10 glucose, and 10 HEPES, supplemented with 1% FBS at pH 7.4. To prepare the Ca^2+‐free solution, 2‐mM CaCl2 was replaced with 1‐mM EGTA in the HEPES‐buffered solution. The 96‐well plate containing the Fluo‐4 AM‐loaded cells was mounted in a Leica TCS SP8 confocal system (Leica Microsystems, Wetzlar, Germany). The confocal microscope armed with 488‐nm laser light was employed to excite the dynamic fluorescent signals in time and synchronously, while test regents were added to cells. To do Na^+ imaging, Fluo‐4 AM was replaced with the cell membrane‐permeable Na^+ dye Asante NaTrium Green‐2 AM (ANG‐2 AM) at 5 μM, which was excited by 514‐nm laser light. Visual inspection and fluorescent imaging were carried out at room temperature. The imaging data were analysed with the software https://leica-las-af-lite.software.informer.com/ 2.5 (Leica). The imaging traces shown are representative of at least three separate experiments; 12–18 cells were imaged in each experiment.
# U87 cells [2] = test: Cell viability assay (Cell Counting Kit-8), U87; conditions: 72 hr, CCK-8; mean ± SEM
# Protocol: (§3) Cell viability was determined by using a Cell Counting Kit‐8 (Dojindo, Japan). Briefly, cells were harvested from flasks and plated in 96‐well cell culture plates at 5 × 10^3 per well and cultured overnight. […] Control cells were treated with cell culture medium and measured at the same time point as treatment groups. CCK‐8 solution (10 μl) was added to each well of the 96‐well plates, and the cultures were incubated for 30 min at 37°C. Absorbance at 450 nm was measured using an automatic microplate reader (Molecular Devices, San Jose, CA, USA).
# (§4) Figure 2 Effect of the Na^+/Ca^2+ exchanger (NCX) blockers on viability of human glioblastoma cell lines. (a, b) Viability of adult glioblastoma cell lines (U87 and U251) after exposure to NCX blockers bepridil, KB‐R7943, SEA0400, SN‐6, or YM244769 at 0–100 μM for 72 hr. n = 5 independent tests per group. (c) Viability of paediatric glioblastoma cell line SF188 after 72‐hr incubation with the same NCX blockers at 0–100 μM. n = 5 independent tests per group. (d) For U87, U251, and SF188 cell lines, concentration of the NCX blockers required to produce half maximal inhibition (IC50: μM, mean ± SEM) of cell viability.
# SF188 cells = test: Cell viability assay (Cell Counting Kit-8), SF188; conditions: 72 hr, CCK-8; mean ± SEM
# Protocol: as §3, §4
# U251 cells = test: Cell viability assay (Cell Counting Kit-8), U251; conditions: 72 hr, CCK-8; mean ± SEM
# Protocol: as §3, §4
# U87 cells [3] = test: Annexin V–FITC/PI apoptosis assay of U87 cells; conditions: for Effect on apoptosis (Annexin V+ cells), compound alone: bepridil 25 μM 6–48 hr, CB‐DMB 3.5 μM 6–48 hr, KB‐R7943 25 μM 20 hr, BAPTA‐AM 10 μM 18 hr, CC‐930 10 μM, PD169316 10 μM
# Protocol: as §1
# [Ca^2+]i in U87 cells = Ca2+ imaging (Fluo-4 AM) of U87 cells
# Protocol: as §2
# [4] = Cell viability assay (Cell Counting Kit-8), ranges given for U87 and U251 together; conditions: human, U87 and U251 cells, read-out: Cell viability, % of control level
# Protocol: Cell viability was determined by using a Cell Counting Kit‐8 (Dojindo, Japan). Briefly, cells were harvested from flasks and plated in 96‐well cell culture plates at 5 × 10^3 per well and cultured overnight. Cells were treated with test reagents for 72 hr. Control cells were treated with cell culture medium and measured at the same time point as treatment groups. CCK‐8 solution (10 μl) was added to each well of the 96‐well plates, and the cultures were incubated for 30 min at 37°C. Absorbance at 450 nm was measured using an automatic microplate reader (Molecular Devices, San Jose, CA, USA).
# forward NCX = test: Whole-cell patch-clamp recording of forward-mode NCX currents in U87 cells; conditions: for IC50: forward NCX current measured at −110 mV, mean ± SEM, n = 4, read-out: IC50, blocking forward NCX (currents); for Inhibition of the forward NCX currents (in words): −110 mV, SEA0400 0.1–100 μM, SN‐6 and YM244769 0.1–30 μM
# Protocol: (§5) Whole‐cell patch‐clamp recording was performed using a Multiclamp 700B amplifier (Molecular Devices, Foster City, CA, USA) at room temperature. Voltage protocols were provided and current recorded via a DigiData‐1550B interface (Molecular Devices) controlled by pClamp 10 Software (Molecular Devices, RRID:SCR_011323). […] Internal solution consisted of (in mM): 120 CsCl, 20 NaCl, 2 MgCl2, 13 CaCl2, 2 Na2ATP, 20 BAPTA, and 10 HEPES at a pH 7.2. […] Series resistance was compensated by 75–85%. Linear leak and residual capacitance currents were subtracted online using a P/4 protocol of the pClamp 10. For the recording of the membrane currents related to the NCX, cells were held at −50 mV and depolarized to +60 mV, and then a voltage ramp starting from +60 to −120 mV was applied for 1,000 ms before returning back to −50 mV. The reverse and forward NCX currents were measured at +50 and −110 mV holding potentials respectively (Molinaro et al., 2008; Rahman, Inman, Kiss, & Janssen, 2012; Song, Chen, & Yu, 2014). Data were filtered at 3 KHz and digitized at sampling rates of 20 KHz. For drug application, cells were perfused with a VC‐6 Six Channel Perfusion Valve Control Systems (Warner Instruments, Greenwich, CT, USA) connected to a gravity‐fed perfusion systems.
# (§6) Data are expressed as mean ± SEM and analysed by Prism 7 software, La Jolla, CA (GraphPad Prism, RRID:SCR_002798). The data and statistical analysis comply with the recommendations of the British Journal of Pharmacology on experimental design and analysis in pharmacology. Concentrations of the NCX blockers (IC50) exerting half‐maximal inhibition of NCX currents were obtained by fitting the concentration–response with the equation: I/I0*100%=Bottom+Top−Bottom/1+10^((^Log^IC50−C)*n) , where I 0 and I are current amplitudes measured in control and in the presence of NCX blockers, C is the logarithm of concentration, and n is the Hill coefficient. The statistical difference between two independent groups was analysed by Student's parametric unpaired t test. And the original data of more than two groups were assessed by the parametric one‐way ANOVA followed by a Tukey's post hoc test. The data for cell viability and Western blot were usually normalized to the control group, and were thus analysed by the non‐parametric Kruskal–Wallis test followed by a Dunn's post hoc test. Differences were considered to be significant when P < .05. Post hoc tests were conducted when the F value achieved the necessary level (P < .05) and there was no significant variance inhomogeneity.
# (§7) We characterized the membrane currents associated with NCX activity in glioblastoma cells using whole‐cell patch‐clamp recording. […] The NCX current in its reverse mode (Ca^2+ entry) was measured at +50, and the forward‐mode current (Ca^2+ exit) was measured at −110 mV. The Ni^2+ (10 mM) was employed to inhibit and identify the NCX currents in its either reverse or forward mode as previously reported (Maack, Ganesan, Sidor, & O'Rourke, 2005).
# reverse NCX = test: Whole-cell patch-clamp recording of reverse-mode NCX currents in U87 cells; conditions: reverse NCX current measured at +50 mV, mean ± SEM, n = 4, read-out: IC50, blocking reverse NCX (currents)
# Protocol: as §5, §6, §7
IC50 (U87 cells [2]) [µM],IC50 (U251 cells) [µM],IC50 (forward NCX) [µM],IC50 (reverse NCX) [µM],SMILES,"Effect on cell cycle distribution, compound alone (U87 cells [1])",Effect on intracellular Na+ [Na+]i level ([Na^+]i in U87 cells),IC50 (SF188 cells) [µM],"Effect on apoptosis (Annexin V+ cells), compound alone (U87 cells [3])","Effect on intracellular Ca2+ pool and ER Ca2+ transporting ([Ca^2+]i in U87 cells; Ca2+‐free solution, followed by 5‐μM thapsigargin)","Effect on [Ca2+]i level ([Ca^2+]i in U87 cells; solution containing 2‐mM Ca2+, bepridil or KB‐R7943 25 or 50 μM, CB‐DMB 2 and 4 μM)","Effect on bepridil-induced apoptosis (U87 cells [3]; bepridil 25 μM 24 hr, pretreatment BAPTA‐AM 10 μM, CC‐930 10 μM or PD169316 10 μM)","viability at 72 h, 10 µM [4] [%]","viability at 72 h, 20 µM [4] [%]","viability at 72 h, 50 µM [4] [%]",Inhibition of the forward NCX currents (in words) (forward NCX)
3.1 ± 0.6,2.7 ± 0.1,–,–,"Cc1ccc(CNC(N)=NC(=O)c2nc(Cl)c(NCc3ccc(Cl)cc3)nc2N)c(C)c1 [CB‐DMB, [N‐(4‐chlorobenzyl)]2,4‐dimethylbenzamyl]",induced G0/G1 arrest,did not change,2.6 ± 0.1,activated apoptosis in time‐dependent manner,did not affect the ER Ca^2+ transporters,elevated [Ca^2+]i,–,–,–,–,–
–,–,–,–,"O[C@H]1CC[C@H](Nc2ncc3nc(Nc4c(F)cc(F)cc4F)n([C@H]4CCOC4)c3n2)CC1 [CC‐930, tanzisertib]",–,–,–,did not activate apoptosis,–,–,attenuated,–,–,–,–
–,–,> 30,3.6 ± 1.2,"CCOc1ccc(Oc2ccc(OCc3cc(F)ccc3F)cc2)c(N)c1 [SEA0400, 2‐[4‐[(2,5‐difluorophenyl)methoxy]phenoxy]‐5‐ethoxyaniline]",–,–,–,–,–,–,–,93 to 106,88 to 103,72 to 92,without inhibition of the forward NCX currents
–,–,> 30,3.2 ± 1.2,"CCOC(=O)C1CSC(Cc2ccc(OCc3ccc([N+](=O)[O-])cc3)cc2)N1 (stereo not shown) [SN‐6, 2‐[[4‐[(4‐nitrophenyl)methoxy]phenyl]methyl]‐4‐thiazolidinecarboxylic acid ethyl ester]",–,–,–,–,–,–,–,87 to 97,86 to 99,74 to 104,without inhibition of the forward NCX currents
–,–,> 30,4.5 ± 1.1,"Cl.Cl.Nc1cccc(CNC(=O)c2ccc(Oc3ccc(OCc4cccc(F)c4)cc3)nc2)c1 [YM244769, N‐[(3‐aminophenyl)methyl]‐6‐[4‐[(3‐fluorophenyl)methoxy]phenoxy]‐3‐pyridinecarboxamide dihydrochloride]",–,–,–,–,–,–,–,87 to 100,84 to 96,71 to 76,without inhibition of the forward NCX currents
